Measurements published in patent US20040057926A1, “Modulation of the immune response through the manipulation of arginine levels” (LSU Medical Center, priority 2002, published 2004).

What was measured:
Jurkat cells [1] = assay: Proliferation of Jurkat cells with H. pylori sonicate (3H-thymidine); type: cell-based; conditions: NOHA 10 μg/ml, L-arginine 2 mM; sonicate 50 μg/ml
Experimental: Unless otherwise stated, the cells were always cultured in RPMI 1640 (Gibco Life-Technologies; Rockville, Md.) which contains 1104 μM L-arginine, 2.5 mM of L-glutamine, (Gibco), 25 mM HEPES (Gibco), 100 μg/ml of penicillin/streptomycin (Gibco), and 10% heat inactivated FCS (Hyclone). Jurkat cells were maintained at 0.5×10^6/ml. For proliferation assays Jurkat cells or peripheral blood mononuclear cells (PBMC) were placed at 2×10^5/well in round-bottom 96-well plates (Corning; Corning, N.Y.) and incubated for 2 h with increasing concentrations of the H. pylori sonicate ranging from 0.01 μg/ml to 100 μg/ml. After this, 30 ng/ml of anti-CD3 (Ortho Diagnostics, Raritan, N.J.) and 100 ng/ml of anti-CD28 (Becton-Dickinson Biosciences; Palo Alto, Calif.) were added to the PBMC. Jurkat cells were incubated for an additional 24 h and the PBMC for 48 h. […] The cells were collected onto glass fiber filters (Unifilter GF/B; Packard Bioscience; Meriden, Conn.) and radioactivity was counted in a Beta counter (Microplate Scintillation and Luminiscence Counter, TopCount, Packard).
(§1) […] After addition of the sonicate plus NOHA or sonicate plus L-arginine mixture to the Jurkat cells, 1.0 μCi of ^3H-thymidine (NEN) was added per well, the cells were incubated at 37° C. for 18 h, harvested onto filters and counted in a β-counter (Packard).

[2] = tested on: peritoneal macrophages (PM); assay: Extra-cellular L-Arg concentration in supernatants of peritoneal macrophages (HPLC); type: cell-based, mice; conditions: for extra-cellular L-Arg levels (mean of three experiments): L-Arg 2 mM, NOHA 100 μM, Nor-NOHA 50 μM; for rapid decrease in the extra-cellular levels of L-Arg: PM stimulated with IL-4+IL-13
Experimental: Jurkat T-cells, a CD4^+ cell line (Clone E6-1) (ATCC, Manassas, Va.) and normal stimulated T-cells were used to test the effect of ASE I, ASE II and iNOS produced by PM on CD3ζ expression. Six-week old female C57BL/6 mice were used to isolate peritoneal macrophages (PM). Briefly, 3 ml of thioglycolate-brewer (Becton Dickinson, San Jose, Calif.) were injected into the peritoneal cavity of mice for 3 days. Mice were then sacrificed and PM isolated by washing the peritoneum with HBSS. After 2 days of culture in RPMI with 4% fetal bovine serum, unattached cells were washed off and attached cells were used in co-cultures with Jurkat or normal T-cells.
(§2) PM were cultured in 6 well plates in RPMI containing 150 μM L-Arg and stimulated with murine rIL-4 (50 U/ml) and murine rIL-13 (50 ng/ml), or murine rIFN-γ (100 U/ml) for 24 hours. Then 1×10^6 normal T-cells stimulated with anti-CD3 plus anti-CD28 or 1×10^6 Jurkat cells, were cultured in the top chamber of a transwell system having 0.4 μm pores (Falcon, Franklin lakes, N.J.). CD3ζ expression was measured in Jurkat cells or T lymphocytes at different time points. PM were detached using trypsin/EDTA and the expression of protein and RNA for CAT-2B, ASE I, ASE II and iNOS was tested by western blot and northern blot respectively. Cytoplasmic extracts from PM were used to test ASE activity. Supernatants from stimulated PM were used to measure NO production using the Griess reagent method (Molecular Probes, Eugene, Oreg.). In addition, the extra-cellular concentration of L-Arg was tested in supernatants by HPLC (Dr. Gu Yao Wu laboratory, University of Texas) as described previously. O'Quinn, P. R., D. A. Knabe, and G. Wu. 2002. Arginine catabolism in lactating porcine mammary tissue. J Anim Sci. 80:467-474.

Jurkat cells [3] = assay: CD3ζ chain expression in Jurkat cells with H. pylori sonicate or proteins; type: cell-based; conditions: NOHA 10 μg/ml; difference not statistically significant
Experimental: Jurkat cells were cultured for 24 h in medium with the H. pylori sonicate at concentrations ranging from 1 μg/ml to 50 μg/ml. CagA (2 μg/ml) (Austral Biologicals; San Ramon, Calif.), VacA (4 μg/ml) (Austral), H. pylori urease A (2 μg/ml) (Austral), H. pylori urease B (2 μg/ml) (Austral) and E. coli LPS (500 ng/ml) (Sigma-Aldrich; St Louis, Mo.) were also used. Jurkat and T-cells were counted and stained with FITC-conjugated anti-human CD3 (Beckman-Coulter; Miami, Fla.) for 20 min in the dark. After washing with PBS the cells were stained for 8 min with phycoerythrin (PE)-conjugated anti-human CD3ζ (Beckman-Coulter; Miami, Fla.) in PBS containing 50 μg/ml of digitonin. The cells were washed twice in PBS and analyzed in an EPICS XL Coulter Flow Cytometer. The results compare the percentage of cells expressing CD3ζ as well as the mean fluorescence intensity.
as §1

Jurkat cells [4] = assay: Co-culture in transwells of stimulated PM and Jurkat cells, CD3ζ expression; type: cell-based; conditions: for CD3ζ in Jurkat cells co-cultured with PM stimulated with IL-4+IL-13: NOHA 100 μM, Nor-NOHA 50 μM, L-Arg 2 mM, L-NIL 5 μg/ml, catalase 200 U/ml, L-NMMA, L-NNA, L-NAME 1 mM
Experimental: as §2
Flow cytometry analysis was performed as previously described. Taheri, F., J. B. Ochoa, Z. Faghiri, K. Culotta, H. J. Park, M. S. Lan, A. H. Zea, and A. C. Ochoa. 2001. L-Arginine regulates the expression of the T-cell receptor zeta chain (CD3zeta) in Jurkat cells. Clin Cancer Res 7:958s-965s. Briefly, 5×10^5 Jurkat cells or T lymphocytes were washed once with Dulbecco phosphate-buffered saline 1× (D-PBS) and resuspended in 200 μL of D-PBS containing 1 μg of anti-CD3ε or isotype control. Cells were incubated for 15 min at 4° C., washed with D-PBS and resuspended in 200 μl D-PBS containing 500 μg/ml of digitonin plus 1 μg of anti-CD3ζ or 1 μg of isotypic control. Cells were incubated for 8 minutes after which they were washed and resuspended in 400 μl of D-PBS. Fluorescence acquisition and analysis were done using a Coulter-EPICS XL flow cytometer (Beckman-Coulter) with a 488 nm argon laser. The data were expressed as mean channel fluorescence intensity (MFI).

[5] = PM stimulated with IL-4 + IL-13

| SMILES | Jurkat cell proliferation in the presence of H. pylori sonicate (Jurkat cells [1]) | extra-cellular L-Arg levels (mean of three experiments) ([2]; Non-stimulated PM) | extra-cellular L-Arg levels (mean of three experiments) [2, 5] | rapid decrease in the extra-cellular levels of L-Arg [2] | CD3ζ chain expression in Jurkat cells treated with H. pylori sonicate (Jurkat cells [3]) | CD3ζ in Jurkat cells co-cultured with PM stimulated with IL-4+IL-13 (Jurkat cells [4]) | re-expression of CD3ζ on addition after 24 hours of co-culture (Jurkat cells [4]; 2 mM added, CD3ζ tested 24 hours later) |
| --- | --- | --- | --- | --- | --- | --- | --- |
| NC(=NCCC[C@H](N)C(=O)O)NO [NOHA, NG-hydroxy-L-arginine] | prevented the decrease in Jurkat cell proliferation | 101.6 µM | 75.6 µM | partially blocked the rapid decrease | partially inhibited the drop in CD3ζ chain expression | prevented the decrease of CD3ζ |  |
| N=C(N)NCCC[C@H](N)C(=O)O [L-arginine] | prevented a decrease in cell proliferation | 1267 µM | 59.8 µM | partially blocked the rapid decrease |  | prevented the decrease of CD3ζ | induced the re-expression of CD3ζ |
